In ChEMBL document CHEMBL1201862, “PubChem BioAssay data set” (2004):
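Where inhibition never reached the appropriate level, the endpoint shown equals the highest concentration tested. Otherwise, values were interpolated linearly from a five-concentration, 48-hour dose response in 96-well plates. GI50 = concentration required for 50% inhibition of growth.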 Active and inactive are the calls of the source. Cut-off read from the data, not from the text of the source: active = GI50 up to about 1.1 µM and inactive = higher.

Assays:
Assay in all cases: DTP human tumour cell line panel, 48 h
SW-620 = tested on: SW-620
Hs-578T = tested on: Hs-578T
HOP-92 = tested on: HOP-92
OVCAR-5 = tested on: OVCAR-5
SF-295 = tested on: SF-295
K562 = tested on: K562
ACHN = tested on: ACHN
HCT-116 = tested on: HCT-116
MOLT-4 = tested on: MOLT-4
786-0 = tested on: 786-0
OVCAR-3 = tested on: OVCAR-3
TK-10 = tested on: TK-10
Malme-3M = tested on: Malme-3M
RPMI-8226 = tested on: RPMI-8226
M14 = tested on: M14
U-251 = tested on: U-251
EKVX = tested on: EKVX
SF-539 = tested on: SF-539
HCC 2998 = tested on: HCC 2998
NCI-H522 = tested on: NCI-H522

Measured: GI50

NCCc1ccc2c(c1)C(=O)c1c(O)ccc(O)c1C2=O
inactive: SW-620 3.95 µM | Hs-578T 5.98 µM | HOP-92 4.05 µM | OVCAR-5 5.06 µM | SF-295 4.62 µM | K562 3.94 µM | ACHN 4.46 µM | HCT-116 2.69 µM | MOLT-4 2.76 µM | 786-0 2.2 µM | OVCAR-3 1.69 µM | TK-10 > 100 µM | Malme-3M 1.87 µM | RPMI-8226 4.14 µM | M14 3.08 µM | U-251 3.64 µM | EKVX 2.45 µM | SF-539 3.02 µM | HCC 2998 > 23.9 µM

Brc1ccc(-c2ccc(-c3ccc(-c4ccc(Br)s4)s3)s2)s1
inactive: SW-620 > 100 µM | Hs-578T > 100 µM | HOP-92 > 100 µM | OVCAR-5 > 100 µM | SF-295 > 100 µM | K562 > 100 µM | ACHN > 100 µM | HCT-116 > 100 µM | MOLT-4 > 100 µM | 786-0 > 100 µM | OVCAR-3 > 100 µM | TK-10 > 100 µM | RPMI-8226 > 100 µM | M14 > 100 µM | U-251 > 100 µM | EKVX > 100 µM | SF-539 > 100 µM | HCC 2998 > 100 µM

O=C1NC(=O)C(CCC(=O)c2cccc3ccccc23)C(=O)N1
inactive: SW-620 > 100 µM | Hs-578T > 100 µM | HOP-92 > 100 µM | OVCAR-5 > 100 µM | SF-295 60.1 µM | K562 > 100 µM | ACHN > 100 µM | HCT-116 > 100 µM | MOLT-4 > 100 µM | 786-0 > 100 µM | OVCAR-3 > 100 µM | RPMI-8226 48.8 µM | M14 > 100 µM | U-251 > 100 µM | SF-539 > 100 µM | HCC 2998 > 100 µM

C#CCOCn1cc(C)c(=O)[nH]c1=O
inactive: SW-620 > 100 µM | Hs-578T > 100 µM | OVCAR-5 > 100 µM | SF-295 > 100 µM | K562 > 100 µM | ACHN > 100 µM | HCT-116 > 100 µM | MOLT-4 > 100 µM | 786-0 > 100 µM | TK-10 > 100 µM | Malme-3M > 100 µM | RPMI-8226 > 100 µM | M14 > 100 µM | U-251 > 100 µM | EKVX > 100 µM | SF-539 > 100 µM | HCC 2998 > 100 µM

C/C=C1\CN(C(=O)OC(C)(C)C)C1C(=O)OC(C)(C)C (configuration not stated)
inactive: SW-620 > 100 µM | Hs-578T 27.7 µM | HOP-92 > 100 µM | OVCAR-5 > 100 µM | SF-295 > 100 µM | K562 > 100 µM | ACHN > 100 µM | HCT-116 > 100 µM | MOLT-4 > 100 µM | 786-0 > 100 µM | OVCAR-3 94 µM | TK-10 > 100 µM | Malme-3M > 100 µM | RPMI-8226 68.7 µM | M14 > 100 µM | EKVX > 100 µM | SF-539 > 100 µM | HCC 2998 > 100 µM

OCCN1CCN2C=C(C3CCCC4N(CCO)CCN34)CCC21 (configuration not stated)
inactive: SW-620 23.6 µM | HOP-92 > 60.8 µM | OVCAR-5 > 100 µM | SF-295 98.4 µM | K562 11.6 µM | ACHN > 49.2 µM | HCT-116 24.9 µM | MOLT-4 13.9 µM | 786-0 41.7 µM | OVCAR-3 35.4 µM | TK-10 > 53.5 µM | NCI-H522 > 44 µM | Malme-3M > 79.8 µM | RPMI-8226 8.04 µM | M14 44.7 µM | U-251 41.4 µM | EKVX > 69.7 µM | SF-539 33.7 µM | HCC 2998 > 100 µM
